From patent US20230167073A1 (Teijin Pharma Limited, priority 2020, published 2023)

What follows are molecules tested against T1, Human TRPC6 (Homo sapiens, UniProt Q9Y210) (assay: Evaluation of TRPC6 channel inhibitory activity (1), FLIPR Calcium 5 Assay Kit, OAG stimulation (Compound Nos. 1-1293)). Conditions: Human TRPC6 stably-expressing cells, OAG 30 μM, FLIPR Calcium 5 Assay Kit; read-out: Inhibitory activity (pIC50 class) (converted).
T1 construct: expressed in transfected cells
T1 sequence (Q9Y210 1-931): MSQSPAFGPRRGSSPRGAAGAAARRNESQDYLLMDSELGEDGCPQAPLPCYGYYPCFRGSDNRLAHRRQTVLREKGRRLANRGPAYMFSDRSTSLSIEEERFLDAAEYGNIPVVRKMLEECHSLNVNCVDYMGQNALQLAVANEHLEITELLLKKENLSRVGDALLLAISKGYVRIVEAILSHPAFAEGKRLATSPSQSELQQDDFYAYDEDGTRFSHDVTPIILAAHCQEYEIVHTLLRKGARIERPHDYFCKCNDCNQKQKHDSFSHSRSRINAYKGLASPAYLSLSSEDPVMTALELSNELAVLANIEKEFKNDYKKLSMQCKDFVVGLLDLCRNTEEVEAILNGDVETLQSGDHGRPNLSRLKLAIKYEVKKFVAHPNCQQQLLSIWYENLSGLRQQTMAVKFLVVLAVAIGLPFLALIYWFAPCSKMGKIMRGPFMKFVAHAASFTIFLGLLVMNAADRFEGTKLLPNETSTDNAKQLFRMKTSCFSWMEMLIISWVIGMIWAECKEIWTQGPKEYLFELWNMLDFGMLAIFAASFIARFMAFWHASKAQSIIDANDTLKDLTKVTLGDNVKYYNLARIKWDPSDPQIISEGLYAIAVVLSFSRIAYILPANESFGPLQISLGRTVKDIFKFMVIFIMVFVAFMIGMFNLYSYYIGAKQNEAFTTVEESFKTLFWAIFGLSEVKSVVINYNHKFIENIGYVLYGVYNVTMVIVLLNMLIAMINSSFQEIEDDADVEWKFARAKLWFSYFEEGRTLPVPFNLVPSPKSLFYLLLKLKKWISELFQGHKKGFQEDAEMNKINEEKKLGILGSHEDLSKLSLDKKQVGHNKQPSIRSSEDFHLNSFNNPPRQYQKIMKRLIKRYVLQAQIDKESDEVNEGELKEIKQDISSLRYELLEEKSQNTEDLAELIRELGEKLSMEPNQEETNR
Format: cell-based
In short: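 Cells stably expressing human TRPC6, plated 24 h before, were loaded 30 min with Calcium 5 dye plus probenecid in HEPES-HBSS. Compound was added 20 min before OAG (30 μM final) and fluorescence tracked on FLIPR. Inhibition normalised to no-compound and no-compound/no-OAG wells; pIC50 from four-parameter fit, reported as +/++/+++ categories.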
An IC50 greater than 1000 nM was found for `Cn1nc(C2CC2)cc1Oc1cc(C#N)ccc1-c1cc(NCCCO)ccn1` [compound 586, 3-(5-cyclopropyl-2-methylpyrazol-3-yl)oxy-4-[4-(3-hydroxypropylamino)pyridin-2-yl]benzonitrile] in this work.
An IC50 of less than 10 nM was found for `Cn1nc(-c2ccccn2)cc1Oc1cc(C#N)ccc1-c1cc(CCN)ccn1` [compound 587, 4-[4-(2-aminoethyl)pyridin-2-yl]-3-(2-methyl-5-pyridin-2-ylpyrazol-3-yl)oxybenzonitrile] in this work.
An IC50 of 10 to 1000 nM was found for `Cn1nc(-c2ncco2)cc1Oc1cc(C#N)ccc1-c1ccc([C@H](O)CN)cn1` [compound 588, 4-[5-[(1S)-2-amino-1-hydroxyethyl]pyridin-2-yl]-3-[2-methyl-5-(1,3-oxazol-2-yl)pyrazol-3-yl]oxybenzonitrile] in this work.
An IC50 of 10 to 1000 nM was found for `Cn1nc(-c2ccccn2)cc1Oc1cc(C#N)ccc1-c1ccc(CN)n2cnnc12` [compound 589, 4-[5-(aminomethyl)-[1,2,4]triazolo[4,3-a]pyridin-8-yl]-3-(2-methyl-5-pyridin-2-ylpyrazol-3-yl)oxybenzonitrile] in this work.
An IC50 greater than 1000 nM was found for `Cc1cc(Oc2cc(C#N)ccc2-c2ccc(CN)n3cnnc23)cc(N2CCOCC2)n1` [compound 590, 4-[5-(aminomethyl)-[1,2,4]triazolo[4,3-a]pyridin-8-yl]-3-(2-methyl-6-morpholin-4-ylpyridin-4-yl)oxybenzonitrile] in this work.
An IC50 greater than 1000 nM was found for `Cc1cc(Oc2cc(C#N)ccc2-c2ccc([C@H](O)CN)cn2)cc(OC2COC2)n1` [compound 591, 4-[5-[(1S)-2-amino-1-hydroxyethyl]pyridin-2-yl]-3-[2-methyl-6-(oxetan-3-yloxy)pyridin-4-yl]oxybenzonitrile] in this work.
An IC50 of less than 10 nM was found for `Cn1nc(-c2nccs2)cc1Oc1cc(C#N)ccc1-c1ncc(CN)cn1` [compound 592, 4-[5-(aminomethyl)pyrimidin-2-yl]-3-[2-methyl-5-(1,3-thiazol-2-yl)pyrazol-3-yl]oxybenzonitrile] in this work.
An IC50 greater than 1000 nM was found for `Cc1cc(Oc2cc(C#N)ccc2-c2nnc(CN)s2)cc(N2CCOCC2)n1` [compound 593, 4-[5-(aminomethyl)-1,3,4-thiazol-2-yl]-3-(2-methyl-6-morpholin-4-ylpyridin-4-yl)oxybenzonitrile] in this work.
An IC50 greater than 1000 nM was found for `Cn1nc(C2CC2)cc1Oc1cc(C#N)ccc1-c1cccc2c(N)noc12` [compound 594, 4-(3-amino-1,2-benzoxazol-7-yl)-3-(5-cyclopropyl-2-methylpyrazol-3-yl)oxybenzonitrile] in this work.
An IC50 of 10 to 1000 nM was found for `Cc1cc(Oc2cc(C#N)ccc2-c2ncc(CCN)cn2)cc(-c2nccs2)n1` [compound 595, 4-[5-(2-aminoethyl)pyrimidin-2-yl]-3-[2-methyl-6-(1,3-thiazol-2-yl)pyridin-4-yl]oxybenzonitrile] in this work.
An IC50 of 10 to 1000 nM was found for `Cc1cc(Oc2cc(C#N)ccc2-c2ncc(CCN)cn2)cc(-c2ncco2)n1` [compound 596, 4-[5-(2-aminoethyl)pyrimidin-2-yl]-3-[2-methyl-6-(1,3-oxazol-2-yl)pyridin-4-yl]oxybenzonitrile] in this work.
An IC50 of 10 to 1000 nM was found for `Cc1cc(Oc2cc(C#N)ccc2-c2ncc(CCN)cn2)cc(-c2cnccn2)n1` [compound 597, 4-[5-(2-aminoethyl)pyrimidin-2-yl]-3-(2-methyl-6-pyrazin-2-ylpyridin-4-yl)oxybenzonitrile] in this work.
An IC50 of 10 to 1000 nM was found for `Cc1nc(Oc2cc(C#N)ccc2-c2ncc(CCN)cn2)cc(-c2nccs2)n1` [compound 598, 4-[5-(2-aminoethyl)pyrimidin-2-yl]-3-[2-methyl-6-(1,3-thiazol-2-yl)pyrimidin-4-yl]oxybenzonitrile] in this work.
An IC50 of less than 10 nM was found for `Cc1nc(Oc2cc(C#N)ccc2-c2ncc(CCN)cn2)cc(-c2ccccn2)n1` [compound 599, 4-[5-(2-aminoethyl)pyrimidin-2-yl]-3-(2-methyl-6-pyridin-2-ylpyrimidin-4-yl)oxybenzonitrile] in this work.
An IC50 of 10 to 1000 nM was found for `Cc1cc(Oc2cc(C#N)ccc2-c2ncc([C@H](O)CN)cn2)cc(-c2nc(C)cs2)n1` [compound 600, 4-[5-[(1S)-2-amino-1-hydroxyethyl]pyrimidin-2-yl]-3-[2-methyl-6-(4-methyl-1,3-thiazol-2-yl)pyridin-4-yl]oxybenzonitrile] in this work.
An IC50 of 10 to 1000 nM was found for `Cc1cc(Oc2cc(C#N)ccc2-c2ncc([C@H](O)CN)cn2)cc(-c2ncc(C)s2)n1` [compound 601, 4-[5-[(1S)-2-amino-1-hydroxyethyl]pyrimidin-2-yl]-3-[2-methyl-6-(5-methyl-1,3-thiazol-2-yl)pyridin-4-yl]oxybenzonitrile] in this work.
An IC50 of 10 to 1000 nM was found for `Cc1nc(Oc2cc(C#N)ccc2-c2ncc(CCN)cn2)cc(-c2ncc(C)s2)n1` [compound 602, 4-[5-(2-aminoethyl)pyrimidin-2-yl]-3-[2-methyl-6-(5-methyl-1,3-thiazol-2-yl)pyrimidm-4-yl]oxybenzonitrile] in this work.
An IC50 of 10 to 1000 nM was found for `Cc1nc(Oc2cc(C#N)ccc2-c2ccc([C@H](O)CN)cn2)cc(-c2nccs2)n1` [compound 603, 4-[5-[(1S)-2-amino-1-hydroxyethyl]pyridin-2-yl]-3-[2-methyl-6-(1,3-thiazol-2-yl)pyrimidin-4-yl]oxybenzonitrile] in this work.
An IC50 of less than 10 nM was found for `Cc1nc(Oc2cc(C#N)ccc2-c2ccc([C@H](O)CN)cn2)cc(-c2ccccn2)n1` [compound 604, 4-[5-[(1S)-2-amino-1-hydroxyethyl]pyridin-2-yl]-3-(2-methyl-6-pyridin-2-ylpyrimidin-4-yl)oxybenzonitrile] in this work.
An IC50 of 10 to 1000 nM was found for `Cc1cc(Oc2cc(C#N)ccc2-c2ccc([C@H](O)CN)cn2)cc(-c2ncc(C)s2)n1` [compound 605, 4-[5-[(1S)-2-amino-1-hydroxyethyl]pyridin-2-yl]-3-[2-methyl-6-(5-methyl-1,3-thiazol-2-yl)pyridin-4-yl]oxybenzonitrile] in this work.
An IC50 of 10 to 1000 nM was found for `Cc1nc(Oc2cc(C#N)ccc2-c2ccc([C@H](O)CN)cn2)cc(-c2ncc(C)s2)n1` [compound 606, 4-[5-[(1S)-2-amino-1-hydroxyethyl]pyridin-2-yl]-3-[2-methyl-6-(5-methyl-1,3-thiazol-2-yl)pyrimidin-4-yl]oxybenzonitrile] in this work.
An IC50 greater than 1000 nM was found for `Cc1cc(Oc2cc(C#N)ccc2-c2cnc(CN)s2)cc(N2CCOCC2)n1` [compound 607, 4-[2-(aminomethyl)-1,3-thiazol-5-yl]-3-(2-methyl-6-morpholin-4-ylpyridin-4-yl)oxybenzonitrile] in this work.
An IC50 greater than 1000 nM was found for `Cn1nc(-c2ccccn2)cc1Oc1cc(C#N)ccc1-c1cnc(CN)s1` [compound 608, 4-[2-(aminomethyl)-1,3-thiazol-5-yl]-3-(2-methyl-5-pyridin-2-ylpyrazol-3-yl)oxybenzonitrile] in this work.
An IC50 of less than 10 nM was found for `Cn1nc(-c2ccccn2)cc1Oc1cc(C#N)ccc1-c1ccc(CN)cn1` [compound 609, 4-[5-(aminomethyl)pyridin-2-yl]-3-(2-methyl-5-pyridin-2-ylpyrazol-3-yl)oxybenzonitrile] in this work.
An IC50 of less than 10 nM was found for `Cn1nc(C2CC2)cc1Oc1cc(C#N)ccc1-c1ccc(CC2(N)COC2)cn1` [compound 610, 4-[5-[(3-aminooxetan-3-yl)methyl]pyridin-2-yl]-3-(5-cyclopropyl-2-methylpyrazol-3-yl)oxybenzonitrile] in this work.
An IC50 greater than 1000 nM was found for `Cc1cc(Oc2cc(C#N)ccc2-c2ccc(C[C@H](N)C(=O)O)cn2)cc(N2CCOCC2)n1` [compound 611, (2S)-2-amino-3-[6-[4-cyano-2-(2-methyl-6-morpholin-4-ylpyridin-4-yl)oxyphenyl]pyridin-3-yl]propanoic acid] in this work.
An IC50 greater than 1000 nM was found for `Cn1nc(C2CC2)cc1Oc1cc(C#N)ccc1-c1ccc(C[C@H](N)C(=O)O)cn1` [compound 612, (2S)-2-amino-3-[6-[4-cyano-2-(5-cyclopropyl-2-methylpyrazol-3-yl)oxyphenyl]pyridin-3-yl]propanoic acid] in this work.
An IC50 of 10 to 1000 nM was found for `Cc1cc(Oc2cc(C#N)ccc2-c2ccc(C3(CN)COC3)cn2)cc(N2CCOCC2)n1` [compound 613, 4-[5-[3-(aminomethyl)oxetan-3-yl]pyridin-2-yl]-3-(2-methyl-6-morpholin-4-ylpyridin-4-yl)oxybenzonitrile] in this work.
An IC50 greater than 1000 nM was found for `Cc1cc(Oc2cc(C#N)ccc2-c2ccc(C[C@@H](N)C(=O)O)cn2)cc(N2CCOCC2)n1` [compound 614, (2R)-2-amino-3-[6-[4-cyano-2-(2-methyl-6-morpholin-4-ylpyridin-4-yl)oxyphenyl]pyridin-3-yl]propanoic acid] in this work.
An IC50 of 10 to 1000 nM was found for `Cc1nc(Oc2cc(C#N)ccc2-c2ccc(CC3(N)COC3)cn2)cc(N2CCCC2)n1` [compound 616, 4-[5-[(3-aminooxetan-3-yl)methyl]pyridin-2-yl]-3-(2-methyl-6-pyrrolidin-1-ylpyrimidin-4-yl)oxybenzonitrile] in this work.
